target: T1, SETD2(1434-1711) (Homo sapiens, UniProt Q9BYW2); experiment: SETD2 (1434-1711) assay; assay type: biochemical; conditions: read-out: SETD2 (1434-1711)
T1 construct: SETD2 (1434-1711) Assay; catalogue N/A
T1 sequence (Q9BYW2 1434-1711): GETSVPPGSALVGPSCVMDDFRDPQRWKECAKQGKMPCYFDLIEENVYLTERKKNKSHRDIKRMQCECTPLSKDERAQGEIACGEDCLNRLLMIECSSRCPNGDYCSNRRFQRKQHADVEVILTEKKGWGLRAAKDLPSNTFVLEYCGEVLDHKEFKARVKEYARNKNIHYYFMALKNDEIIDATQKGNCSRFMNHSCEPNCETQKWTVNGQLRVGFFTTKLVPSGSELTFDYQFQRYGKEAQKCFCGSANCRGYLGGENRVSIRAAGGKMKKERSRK

Structure (SMILES)	IC50 [µM]
Cc1cccc2cc(C(=O)NCc3cn4ccnc4cn3)[nH]c12 [compound 710]	83.4
CCc1c(C(=O)N[C@H]2CC[C@H](NC(=O)CCN)CC2)[nH]c2c(C)cccc12 [compound 711]	85.9
Cc1cccc2cc(C(=O)NC(C)c3ccn(C)n3)[nH]c12 (stereo not shown) [compound 712]	86.4
Cc1cccc([C@@H](C)NC(=O)c2cc3cccc(C)c3[nH]2)c1 [compound 713]	91.2
Cc1cccc2cc(C(=O)NC(C)c3cccc4ccccc34)[nH]c12 (stereo not shown) [compound 714]	98.9
Cc1cccc2cc(C(=O)NC3CCNCC3)[nH]c12 [compound 715]	98.9
Cc1cccc2cc(C(=O)NCc3ccccc3N3CCCCC3)[nH]c12 [compound 716]	> 100
Cc1cccnc1C(NC(=O)c1cc2cccc(C(F)(F)F)c2[nH]1)C1CC1 (stereo not shown) [compound 717]	> 100
Cc1cccc2cc(C(=O)N3CCCc4ccccc4C3)[nH]c12 [compound 718]	103
Cc1cc(CNC(=O)c2cc3cccc(C)c3[nH]2)no1 [compound 719]	107
Cc1cccc2cc(C(=O)NCC(O)c3c(F)cccc3F)[nH]c12 (stereo not shown) [compound 720]	109
Cc1nc(CNC(=O)c2cc3cccc(C)c3[nH]2)c(C)o1 [compound 721]	113
Cc1cccnc1C(NC(=O)c1cc2cccc(C)c2[nH]1)C1CCNC1 (stereo not shown) [compound 722]	116
Cc1cnc(CNC(=O)c2cc3cccc(C)c3[nH]2)cn1 [compound 723]	116
Cc1cccc2cc(C(=O)Nc3cc(CN4CCOCC4)ccn3)[nH]c12 [compound 724]	117
Cc1cccc2cc(C(=O)NC(CCN(C)C)c3cccnc3)[nH]c12 (stereo not shown) [compound 725]	123
Cc1cccc2cc(C(=O)N[C@H](c3ccccc3)C(F)(F)F)[nH]c12 [compound 726]	124
Cc1cccc2cc(C(=O)NC(c3cncc(CN(C)C)c3)C3CC3)[nH]c12 (stereo not shown) [compound 727]	125
Cc1cccnc1C(CCN(C)C)NC(=O)c1cc2cccc(C)c2[nH]1 (stereo not shown) [compound 728]	127
Cc1cccc2cc(C(=O)NCc3cnc[nH]3)[nH]c12 [compound 729]	129
Cc1ccc(C)c2[nH]c(C(=O)N[C@H]3CC[C@H](N)CC3)cc12 [compound 730]	> 130
Cc1cccc2cc(C(=O)NCC(O)C3CC3)[nH]c12 (stereo not shown) [compound 731]	137

Structure (SMILES)	IC50 [µM]
Cc1nonc1CNC(=O)c1cc2cccc(C)c2[nH]1 [compound 732]	137
Cc1cccc2cc(C(=O)NCc3cocn3)[nH]c12 [compound 733]	147
Cc1noc(C(C)NC(=O)c2cc3cccc(C)c3[nH]2)n1 (stereo not shown) [compound 735]	165
Cc1c(C(=O)N[C@H]2CC[C@H](N)CC2)[nH]c2c(C)cccc12 [compound 736]	168
Cc1cc(C)c2[nH]c(C(=O)N[C@H]3CC[C@H](NC(=O)CCN)CC3)cc2c1 [compound 738]	179
Cc1cccc2cc(C(=O)NCCN3CCOCC3)[nH]c12 [compound 746]	> 200
Cc1cccc2cc(C(=O)NCC3CCCO3)[nH]c12 (stereo not shown) [compound 747]	> 200
Cc1cccc2cc(C(=O)NC3CCc4ccccc43)[nH]c12 (stereo not shown) [compound 748]	> 200
Cc1cccc2cc(C(=O)NC(C)c3ccccc3)[nH]c12 (stereo not shown) [compound 749]	> 200
Cc1cccc2cc(C(=O)NCc3cccc(N4CCCCC4)c3)[nH]c12 [compound 750]	> 200
Cc1cccc2cc(C(=O)NCc3cccc(S(=O)(=O)N4CCCCC4)c3)[nH]c12 [compound 751]	> 200
Cc1cccc2cc(C(=O)NC3CCN(Cc4ccccc4)CC3)[nH]c12 [compound 752]	> 200
Cc1cccc2cc(C(=O)NC3CCCc4ccccc43)[nH]c12 (stereo not shown) [compound 753]	> 200
COc1ccc(C(O)CNC(=O)c2cc3cccc(C)c3[nH]2)cc1 (stereo not shown) [compound 754]	> 200
Cc1cccc2cc(C(=O)NCc3ccc(CN4CCOCC4)cc3)[nH]c12 [compound 755]	> 200
Cc1cc(C)c2[nH]c(C(=O)N[C@H]3CC[C@H](N)CC3)cc2c1 [compound 756]	> 200
Cc1cccc2cc(C(=O)N3CCN(c4ncccc4C(N)=O)CC3)[nH]c12 [compound 757]	> 200
Cc1cccc2cc(C(=O)NCc3ccc(S(=O)(=O)N4CCCCC4)cc3)[nH]c12 [compound 758]	> 200
Cc1cccc2cc(C(=O)N[C@H]3C[C@@H](CO)C3)[nH]c12 [compound 759]	> 200
Cc1cccc2cc(C(=O)N(C)[C@H]3CC[C@H](N)CC3)[nH]c12 [compound 761]	> 200
Cc1cccc2cc(C(=O)N[C@H](CO)C(C)C)[nH]c12 [compound 763]	> 200
COC(=O)CC(NC(=O)c1cc2cccc(C)c2[nH]1)c1ccc(Cl)cc1 (stereo not shown) [compound 764]	> 200

Structure (SMILES)	IC50 [µM]
Cc1cccc2cc(C(=O)N[C@H](CO)Cc3ccccc3)[nH]c12 [compound 765]	> 200
Cc1cccc2cc(C(=O)NC(C)CNC(=O)OC(C)(C)C)[nH]c12 (stereo not shown) [compound 766]	> 200
Cc1cccc2cc(C(=O)NCc3ccccc3OCC3CC3)[nH]c12 [compound 767]	> 200
Cc1cccc2cc(C(=O)NCc3ncnn3C)[nH]c12 [compound 768]	> 200
Cc1cccc2cc(C(=O)NC(C3CC3)C(F)(F)F)[nH]c12 (stereo not shown) [compound 769]	> 200
Cc1cccc2cc(C(=O)N3CCC(C(N)=O)CC3)[nH]c12 [compound 771]	> 200
COC(=O)CC(NC(=O)c1cc2cccc(C)c2[nH]1)c1ccc(C(C)C)cc1 (stereo not shown) [compound 773]	> 200
COC(=O)CC(NC(=O)c1cc2cccc(C)c2[nH]1)c1ccccc1Br (stereo not shown) [compound 774]	> 200
COC(=O)CC(NC(=O)c1cc2cccc(C)c2[nH]1)c1ccccc1 (stereo not shown) [compound 775]	> 200
COC(=O)CC(NC(=O)c1cc2cccc(C)c2[nH]1)c1ccc(F)cc1 (stereo not shown) [compound 776]	> 200
COC(=O)CC(NC(=O)c1cc2cccc(C)c2[nH]1)c1ccc(OC)cc1 (stereo not shown) [compound 777]	> 200
COC(=O)CC(NC(=O)c1cc2cccc(C)c2[nH]1)c1ccc(Br)cc1 (stereo not shown) [compound 778]	> 200
Cc1cccc2cc(C(=O)NCc3nc4ccccc4o3)[nH]c12 [compound 779]	> 200
Cc1cccc2cc(C(=O)N[C@H]3CC[C@H](C(F)(F)F)CC3)[nH]c12 [compound 780]	> 200
Cc1cccc2cc(C(=O)N3CCN(CC(N)=O)CC3)[nH]c12 [compound 781]	> 200
Cc1nc(CCNC(=O)c2cc3cccc(C)c3[nH]2)no1 [compound 782]	> 200
COC(=O)CC(NC(=O)c1cc2cccc(C)c2[nH]1)c1ccc(C)cc1 (stereo not shown) [compound 783]	> 200
Cc1cccc2cc(C(=O)NCC(O)C(F)F)[nH]c12 (stereo not shown) [compound 784]	> 200
Cc1nc(C(C)NC(=O)c2cc3cccc(C)c3[nH]2)no1 (stereo not shown) [compound 785]	> 200
Cc1cccc2cc(C(=O)N3CCCC3C(N)=O)[nH]c12 (stereo not shown) [compound 786]	> 200
Cc1cccc2cc(C(=O)N3CCN(C(N)=O)CC3)[nH]c12 [compound 787]	> 200
Cc1cccc2cc(C(=O)NC(C)c3ccccc3C(F)(F)F)[nH]c12 (stereo not shown) [compound 788]	> 200

Structure (SMILES)	IC50 [µM]
Cc1cccc2cc(C(=O)NC(C)c3cccc(C(F)(F)F)c3)[nH]c12 (stereo not shown) [compound 790]	> 200
Cc1cccc2cc(C(=O)N[C@H]3CC[C@H](NC(=O)C(F)(F)F)CC3)[nH]c12 [compound 791]	> 200
Cc1cccc2cc(C(=O)N3CCCC(N)C3)[nH]c12 (stereo not shown) [compound 794]	> 200
Cc1cccc2cc(C(=O)Nc3cccnc3)[nH]c12 [compound 795]	> 200
Cc1cccc2cc(C(=O)Nc3cn4ccccc4n3)[nH]c12 [compound 796]	> 200
CCOC(=O)[C@@H]1CCCC[C@H]1NC(=O)c1cc2cccc(C)c2[nH]1 [compound 797]	> 200
Cc1cccc2cc(C(=O)N3CCCC(NC(=O)CCN)C3)[nH]c12 (stereo not shown) [compound 798]	> 200
Cc1cccc2cc(C(=O)N3CCCC(N(C)C)C3)[nH]c12 (stereo not shown) [compound 799]	> 200
CNC1CCCN(C(=O)c2cc3cccc(C)c3[nH]2)C1 (stereo not shown) [compound 800]	> 200
Cc1ccccc1C(NC(=O)c1cc2cccc(C)c2[nH]1)C1CC1 (stereo not shown) [compound 801]	> 200
Cc1cccnc1C(NC(=O)c1cc2cccc(C(C)C)c2[nH]1)C1CC1 (stereo not shown) [compound 802]	> 200
CCc1cccc2cc(C(=O)NC(c3ccccn3)C3CC3)[nH]c12 (stereo not shown) [compound 803]	> 200
Cc1cccc2cc(C(=O)Nc3ncc4ccccc4n3)[nH]c12 [compound 804]	> 200
CNC(=O)CC(NC(=O)c1cc2cccc(C)c2[nH]1)c1cccnc1 (stereo not shown) [compound 809]	> 200
Cc1cccc2cc(C(=O)N3CCn4cncc4C3)[nH]c12 [compound 810]	> 200
Cc1cccc2cc(C(=O)N3CCn4cnnc4C3)[nH]c12 [compound 811]	> 200
Cc1cccc2cc(C(=O)N3CCn4ncnc4C3)[nH]c12 [compound 812]	> 200
Cc1cccc2cc(C(=O)N3CCC(=O)c4ccccc4C3)[nH]c12 [compound 814]	> 200
Cc1cccc2cc(C(=O)NCC(CN(C)C)c3ccccc3)[nH]c12 (stereo not shown) [compound 815]	> 200
Cc1cccc2cc(C(=O)NC3CCC(c4ccccc4)NC(=O)C3)[nH]c12 (stereo not shown) [compound 816]	> 200
Cc1cccc2cc(C(=O)NC(c3ncccc3Cc3ccccc3)C3CC3)[nH]c12 (stereo not shown) [compound 817]	> 200
Cc1cccc2cc(C(=O)NCCc3ccccc3-c3ccccc3)[nH]c12 [compound 818]	> 200

— US12116358B2, “Substituted indoles and methods of use thereof” (EPIZYME, INC., priority 2018, dated 2024)
